Numbers after ± are expanded uncertainties.
Experiments:
[1] = xn = mol fraction of the nth substance listed; settings: 100 kPa, Liquid, x1 = 1; for speed of sound: Frequency=3 MHz, Sing-around technique in a fixed-path interferometer; for mass density: Vibrating tube method
[2] = 100 kPa, Liquid; for speed of sound: Frequency=3 MHz, Sing-around technique in a fixed-path interferometer; for mass density: Vibrating tube method
[3] = molar heat capacity at constant pressure; settings: 100 kPa, Liquid, Extra sensitive DSC

In the case of CCCC[n+]1ccn(C)c1.O=S(=O)([N-]S(=O)(=O)C(F)(F)F)C(F)(F)F + COCCO, the speed of sound ([1]; 298.15 K) is reported as 1227.8 ± 1.5 m/s, the mass density ([1]; 298.15 K) is reported as 1437.12 ± 1.1 kg/m3 and the speed of sound ([1]; 303.15 K) is reported as 1216.7 ± 1.5 m/s. It also gave a mass density ([1]; 303.15 K) of 1432.51 ± 1.1 kg/m3, a speed of sound ([1]; 308.15 K) of 1205.8 ± 1.5 m/s and a mass density ([1]; 308.15 K) of 1427.43 ± 1.1 kg/m3. For the same compound, the speed of sound ([1]; 313.15 K) was 1194.9 ± 1.5 m/s, the mass density ([1]; 313.15 K) was 1422.86 ± 1.1 kg/m3 and the speed of sound ([1]; 318.15 K) was 1184.2 ± 1.5 m/s. The mass density ([1]; 318.15 K) was 1417.91 ± 1.1 kg/m3, the speed of sound ([1]; 323.15 K) was 1173.6 ± 1.5 m/s and the mass density ([1]; 323.15 K) was 1413.58 ± 1.1 kg/m3.
Compound CCCC[n+]1ccn(C)c1.O=S(=O)([N-]S(=O)(=O)C(F)(F)F)C(F)(F)F has a speed of sound ([2]; 298.15 K) of 1227.8 ± 1.5 m/s, a mass density ([2]; 298.15 K) of 1437.12 ± 1.1 kg/m3 and a speed of sound ([2]; 303.15 K) of 1216.7 ± 1.5 m/s. The mass density ([2]; 303.15 K) was 1432.51 ± 1.1 kg/m3, the speed of sound ([2]; 308.15 K) was 1205.8 ± 1.5 m/s and the mass density ([2]; 308.15 K) was 1427.43 ± 1.1 kg/m3. For the same compound, the speed of sound ([2]; 313.15 K) was 1194.9 ± 1.5 m/s, the mass density ([2]; 313.15 K) was 1422.86 ± 1.1 kg/m3 and the speed of sound ([2]; 318.15 K) was 1184.2 ± 1.5 m/s. The mass density ([2]; 318.15 K) was 1417.91 ± 1.1 kg/m3, the speed of sound ([2]; 323.15 K) was 1173.6 ± 1.5 m/s and the mass density ([2]; 323.15 K) was 1413.58 ± 1.1 kg/m3. For the same compound, the “molar heat capacity at constant pressure” value ([3]; 298.15 K) was 567.22 ± 22 J/K/mol, the “molar heat capacity at constant pressure” value ([3]; 303.15 K) was 569.85 ± 22 J/K/mol and the “molar heat capacity at constant pressure” value ([3]; 308.15 K) was 572.64 ± 22 J/K/mol. For the same compound, the “molar heat capacity at constant pressure” value ([3]; 313.15 K) was 575.47 ± 22 J/K/mol, the “molar heat capacity at constant pressure” value ([3]; 318.15 K) was 578.38 ± 22 J/K/mol and the “molar heat capacity at constant pressure” value ([3]; 323.15 K) was 581.52 ± 23 J/K/mol.
Work on COCCO [2-methoxyethan-1-ol] yielded a speed of sound ([2]; 298.15 K) of 1341.8 ± 1.5 m/s, a mass density ([2]; 298.15 K) of 960.31 ± 1 kg/m3 and a speed of sound ([2]; 303.15 K) of 1324.1 ± 1.5 m/s. The mass density ([2]; 303.15 K) was 955.71 ± 1 kg/m3, the speed of sound ([2]; 308.15 K) was 1307.3 ± 1.5 m/s and the mass density ([2]; 308.15 K) was 951.08 ± 1 kg/m3. The speed of sound ([2]; 313.15 K) was 1292 ± 1.5 m/s, the mass density ([2]; 313.15 K) was 946.41 ± 1 kg/m3 and the speed of sound ([2]; 318.15 K) was 1274.2 ± 1.5 m/s. The mass density ([2]; 318.15 K) was 941.72 ± 1 kg/m3, the speed of sound ([2]; 323.15 K) was 1259.4 ± 1.5 m/s and the mass density ([2]; 323.15 K) was 936.99 ± 1 kg/m3. For the same compound, the “molar heat capacity at constant pressure” value ([3]; 298.15 K) was 175.32 ± 6.8 J/K/mol, the “molar heat capacity at constant pressure” value ([3]; 303.15 K) was 176.9 ± 6.8 J/K/mol and the “molar heat capacity at constant pressure” value ([3]; 308.15 K) was 178.41 ± 6.9 J/K/mol. For the same compound, the “molar heat capacity at constant pressure” value ([3]; 313.15 K) was 179.96 ± 7 J/K/mol, the “molar heat capacity at constant pressure” value ([3]; 318.15 K) was 181.45 ± 7 J/K/mol and the “molar heat capacity at constant pressure” value ([3]; 323.15 K) was 183.02 ± 7.1 J/K/mol.
